Experimental findings from ChEMBL document CHEMBL3112582, “Identification of novel 7-amino-5-methyl-1,6-naphthyridin-2(1H)-one derivatives as potent PI3K/mTOR dual inhibitors” (Bioorg Med Chem Lett, 2014) are described below.

Bounds are passed on as bounds.

By IC50 is commonly meant the concentration at which inhibition is half-maximal. The AUC(0-inf) is total exposure, with the tail of the curve extrapolated. Lower therefore signals low exposure. One may read the half-life as the time in which the quantity being followed falls by half. Read a high half-life as slow decline. By bioavailability is commonly meant dose-corrected exposure relative to a reference, in per cent. A high value points to good availability. As usually defined, the clearance is the volume of plasma or blood freed of the substance per unit of time. Lower therefore signals inefficient removal.

The target of series [1] is Serine/threonine-protein kinase mTOR (Homo sapiens, UniProt P42345). The series can be described thus: Inhibition of mTOR (unknown origin) after 40 mins by TR-FRET assay. A general note: In TR-FRET formats the signal depends on donor and acceptor labels being close together.
Series [2] has as its target Phosphatidylinositol 4,5-bisphosphate 3-kinase catalytic subunit alpha isoform (Homo sapiens, UniProt P42336). The series can be described thus: Inhibition of PI3Kalpha (unknown origin) using PIP2/PS as substrate compound preincubated for 15 mins by luciferase-based luminescence assay.
The next series has as its system SK-OV-3. The series can be described thus: Antiproliferative activity against human SKOV3 cells after 72 hrs by CellTiter-Glo assay. In kind it is functional, cell-based. To be noted: SK-OV-3, 72 h. On the technique in general: ATP-based viability assays read luminescence as a measure of living cells.
Series [3] can be described thus: AUC (infinity) in CD-1 mouse at 1.3 mg/kg, iv. In kind it is ADME, organism-based. Further details: time infinity, dose 1.3 mg/kg, route intravenous. The conditions noted are these: plasma.
Series [4] can be described thus: Half life in CD-1 mouse at 6.81 mg/kg, po. It counts as ADME, organism-based. Further details: dose 6.81 mg/kg, route oral. To be noted: in vivo.
Series [5] can be described thus: AUC (infinity) in CD-1 mouse at 6.81 mg/kg, po. To be noted: plasma. On the set-up: time infinity, dose 6.81 mg/kg, route oral. It counts as ADME, organism-based.
A short description of series [6]: Half life in CD-1 mouse at 1.3 mg/kg, iv. It counts as ADME, organism-based. On the set-up: dose 1.3 mg/kg, route intravenous. The conditions noted are these: in vivo.
Series [7] in a line: Oral bioavailability in CD-1 mouse at 6.81 mg/kg. In kind it is ADME, organism-based. To be noted: in vivo.
The nature of series [8]: Clearance in CD-1 mouse at 1.3 mg/kg, iv. Further details: dose 1.3 mg/kg, route intravenous. To be noted: in vivo. It counts as ADME, organism-based.

Sequence of Phosphatidylinositol 4,5-bisphosphate 3-kinase catalytic subunit alpha isoform (P42336 whole entry, canonical isoform): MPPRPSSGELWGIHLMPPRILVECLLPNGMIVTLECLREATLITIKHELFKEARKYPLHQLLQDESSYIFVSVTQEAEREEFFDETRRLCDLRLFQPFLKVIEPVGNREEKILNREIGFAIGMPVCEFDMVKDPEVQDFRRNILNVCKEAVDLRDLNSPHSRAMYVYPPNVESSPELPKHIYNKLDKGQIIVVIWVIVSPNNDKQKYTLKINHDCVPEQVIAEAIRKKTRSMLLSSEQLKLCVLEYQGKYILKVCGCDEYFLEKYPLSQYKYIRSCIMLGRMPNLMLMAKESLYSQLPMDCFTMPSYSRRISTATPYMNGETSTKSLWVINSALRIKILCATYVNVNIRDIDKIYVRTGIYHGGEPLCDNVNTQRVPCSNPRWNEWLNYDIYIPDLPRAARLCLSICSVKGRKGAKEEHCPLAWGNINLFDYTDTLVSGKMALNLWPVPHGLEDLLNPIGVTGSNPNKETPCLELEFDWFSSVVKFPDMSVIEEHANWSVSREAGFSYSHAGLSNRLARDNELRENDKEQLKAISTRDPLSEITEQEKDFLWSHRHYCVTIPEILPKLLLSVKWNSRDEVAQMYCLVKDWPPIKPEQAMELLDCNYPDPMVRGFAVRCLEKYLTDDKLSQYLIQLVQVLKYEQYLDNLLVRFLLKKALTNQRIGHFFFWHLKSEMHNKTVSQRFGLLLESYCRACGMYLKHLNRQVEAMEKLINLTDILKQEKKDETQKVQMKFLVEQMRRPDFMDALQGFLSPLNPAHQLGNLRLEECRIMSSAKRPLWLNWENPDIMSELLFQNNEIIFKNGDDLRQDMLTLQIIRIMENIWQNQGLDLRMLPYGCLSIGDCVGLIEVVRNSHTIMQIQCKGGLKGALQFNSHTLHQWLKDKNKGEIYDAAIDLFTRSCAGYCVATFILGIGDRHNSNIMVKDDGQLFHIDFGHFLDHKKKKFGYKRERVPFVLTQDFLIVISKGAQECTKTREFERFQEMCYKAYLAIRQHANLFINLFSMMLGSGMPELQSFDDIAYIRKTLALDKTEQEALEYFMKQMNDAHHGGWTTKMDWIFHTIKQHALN

In [1], `COc1ccc(-c2cc3c(C)nc(N)nc3n(C3CCCC3)c2=O)cn1` displayed an IC50 of 30.1 nM.
With `COc1ncc(-c2cc3c(C)nc(N)cc3n(C3CCCC3)c2=O)cc1NS(=O)(=O)c1ccc(C(F)(F)F)cc1`, the figures for the IC50 in series [1] and in series [2] were 78.2 nM and 175 nM, respectively.
Taken in the same sequence, the figures for `COc1ncc(-c2cc3c(C)nc(N)cc3n(C3CCCC3)c2=O)cc1NS(=O)(=O)c1ccc(F)cc1` were 35 nM and 72.6 nM.
The like results for `COc1ncc(-c2cc3c(C)nc(N)cc3n(C3CCCC3)c2=O)cc1NS(=O)(=O)c1cccc(F)c1` were, in that order, 13.9 nM and 60.5 nM.
The molecule `COc1ncc(-c2cc3c(C)nc(N)cc3n(C3CCCC3)c2=O)cc1NS(=O)(=O)c1ccccc1F` returned a 50% inhibitory concentration (IC50) in series [2] of 37.3 nM.
As for `COc1ncc(-c2cc3c(C)nc(N)cc3n(C3CCCC3)c2=O)cc1NS(=O)(=O)c1ccc(Cl)s1`, the concentration for half-maximal inhibition (IC50) in series [1] stood at 8.49 nM; in series [2], 31.2 nM.
For `COc1ncc(-c2cc3c(C)nc(N)cc3n([C@H]3CC[C@H](O)CC3)c2=O)cc1NS(=O)(=O)c1ccc(F)cc1F`, the values for the half-inhibitory concentration (IC50) in [1] and in series [2] were 28.7 nM and 9.9 nM, respectively.
Consider `COc1ncc(-c2cc3c(C)nc(N)cc3n(C3CCOCC3)c2=O)cc1NS(=O)(=O)c1ccc(F)cc1F`, for which the IC50 in series [1] was 13.4 nM; in series [2], 8.6 nM.
In turn, `COc1ncc(-c2cc3c(C)nc(N)cc3n(C3CC3)c2=O)cc1NS(=O)(=O)c1ccc(F)cc1F` gave a concentration for half-maximal inhibition (IC50) in [2] of 39.6 nM.
On to `COc1ncc(-c2cc3c(C)nc(N)cc3n(C(C)C)c2=O)cc1NS(=O)(=O)c1ccc(F)cc1F`, for which the figures for the IC50 in series [1] and in series [2] were 126 nM and 42.8 nM, respectively.
As to `COc1ccc(-c2cn([C@H]3CC[C@H](OCCO)CC3)c3nc(N)nc(C)c23)cn1`, the IC50 in series [1] and in [2] was over 10000 nM throughout.
For `COc1ccc(-c2cc3c(C)nc(N)nc3n2[C@H]2CC[C@H](OCCO)CC2)cn1`, the concentration for half-maximal inhibition (IC50) in [1] was over 10000 nM; in [2], 5550 nM.
Molecule `COc1ncc(-c2cnc3nc(N)nc(C)c3c2)cc1NS(=O)(=O)c1ccc(F)cc1F` gave an IC50 in series [1] of 35.3 nM.
Consider `COc1ncc(-c2cnc3nc(N)nc(-c4ccncc4)c3c2)cc1NS(=O)(=O)c1ccc(F)cc1F`, for which the IC50 in [1] stood at 18.4 nM; in [2] it was 35.6 nM.
With `COc1ncc(-c2ccc3nc(N)nc(C)c3c2)cc1NS(=O)(=O)c1ccc(F)cc1F`, the IC50 in series [1] is 2.32 nM; in [2], 3.43 nM.
With `COc1ccc(-c2cc3c(C)nc(N)cc3n([C@H]3CC[C@H](OCCO)CC3)c2=O)cn1`, the values for the half-maximal inhibitory concentration (IC50) in series [1] and in series [2] were 11.2 nM and 35.4 nM, respectively.
Taken in the same sequence, the figures for `COc1ccc(-c2cc3c(C)nc(N)cc3n(C3CCCC3)c2=O)cn1` were 39 nM and 13.6 nM.
Taken in the same sequence, the figures for `COc1ncc(-c2cc3c(C)nc(N)cc3n(C3CCCC3)c2=O)cn1` were 36.5 nM and 6.45 nM.
Taken in the same sequence, the figures for `COc1ncc(-c2cc3c(C)nc(N)cc3n(C3CCCC3)c2=O)cc1F` were 160 nM and 5.95 nM.
As for `Cc1nc(N)cc2c1cc(-c1cnc3[nH]ccc3c1)c(=O)n2C1CCCC1`, the IC50 turned out to be 12.3 nM in series [1] and 2.45 nM in [2].
Taken in the same sequence, the figures for `Cc1nc(N)cc2c1cc(-c1cnc3c(ccn3C)c1)c(=O)n2C1CCCC1` were 82.1 nM and 15.2 nM.
As to `Cc1nc(N)cc2c1cc(-c1cnc3[nH]cnc3c1)c(=O)n2C1CCCC1`, the 50% inhibitory concentration (IC50) was 13.9 nM in [1] and 2.9 nM in series [2].
The like results for `Cc1nc(N)cc2c1cc(-c1cnc3[nH]ncc3c1)c(=O)n2C1CCCC1` were, in that order, 172 nM and 6 nM.
Taken in the same sequence, the figures for `COc1ncc(-c2cc3c(C)nc(N)cc3n(C3CCCC3)c2=O)cc1NS(=O)(=O)c1ccc(F)cc1F` were 33.9 nM and 12 nM.
As for `COc1ncc(-c2cc3c(C)nc(N)cc3n([C@H]3CC[C@H](OCCO)CC3)c2=O)cc1NS(=O)(=O)c1ccc(F)cc1F`, the IC50 worked out at 8.55 nM in series [1], 2100 nM in the series with SK-OV-3 and 2.42 nM in series [2]. The AUC(0-inf) was found to be 8090 ng·h/mL in series [3] and 3440 ng·h/mL in [5]. The half-life was 460 min in series [4] and 79.8 min in [6]. The same molecule displayed a bioavailability in series [7] of 8.5%. For the same molecule, in series [8], the clearance is 2.87 mL/min/kg.
In the case of `COc1ncc(-c2cc3c(C)nc(N)cc3n(C3CCCC3)c2=O)cc1NS(C)(=O)=O`, the values for the IC50 in series [1] and in series [2] were 62.6 nM and 23.1 nM, respectively.
Taken in the same sequence, the figures for `COc1ncc(-c2cc3c(C)nc(N)cc3n(C3CCCC3)c2=O)cc1NS(=O)(=O)C1CC1` were 141 nM and 69.1 nM.
The like results for `COc1ncc(-c2cc3c(C)nc(N)cc3n(C3CCCC3)c2=O)cc1NS(=O)(=O)c1ccccc1` were, in that order, 19.2 nM and 117 nM.
As for `COc1ccc(S(=O)(=O)Nc2cc(-c3cc4c(C)nc(N)cc4n(C4CCCC4)c3=O)cnc2OC)cc1`, the results for the half-maximal inhibitory concentration (IC50) in [1] and in series [2] were 65.6 nM and 174 nM, respectively.
Regarding `COc1ncc(-c2cc3c(C)nc(N)cc3n(C3CCCC3)c2=O)cc1NS(=O)(=O)c1ccc(C#N)cc1`, the figures for the 50% inhibitory concentration (IC50) in [1] and in [2] were 24.7 nM and 14.3 nM, respectively.
